Patent US3956234A, “Inhibiting ozone deterioration of rubbers” (Sumitomo Chemical Company, Limited, priority 1973, dated 1976)

Key:
[1] = Static ozone deterioration test, Example 1 natural rubber compound (pale crape No. 1); conditions: Table 2, static, 20 % elongation, 2 parts added, ozone 35 ± 5 pphm, 50 ± 10°C
Procedure: (§1) Two parts of each of the present compounds in Table 1 (sample numbers A to H) and, as a counterpart, Antiozonant AFD (a registered trademark of Bayer Co. Ltd.) represented by sample number I were individually mixed thoroughly with the following rubber compound,
(§2) and each resulting mixture was well milled on a 2-roll mill of 10 inches in diameter and then vulcanized thereon at 140°C. for 20 minutes. A blank test was also carried out at the same time for comparison, using the rubber compound alone above mentioned.
(§3) The static and dynamic ozone deterioration tests were made on the test pieces on the Ozone Weather-O-Meter produced by Toyo Rika Co. Ltd. In the static test, the Dumbbel No. 2 test pieces were kept at a 20 % elongation in the stream of ozone during the test, and during the latter test, the test pieces were given repeated elongation of from 0 up to 20 % once a second in the stream of ozone.
(§4) The tests were carried out under the condition that the ozone concentration be 35 ± 5 pphm and the test temperature be 50 ± 10°C., and the time required for the generation of visually observable cracks on the surface of the vulcanized rubber was taken as a crack-generating time which was used as the measure of ozone-resistance.

[2] = Dynamic ozone deterioration test, Example 1 natural rubber compound (pale crape No. 1); conditions: Table 3, dynamic, repeated elongation 0 up to 20 % once a second, 2 parts added, ozone 35 ± 5 pphm, 50 ± 10°C
Procedure: as §1, §2, §3, §4

[3] = Static ozone deterioration test, Example 2 SBR compound; conditions: Table 4, static, 20 % elongation, 2 parts added, ozone 35 ± 5 pphm, 50 ± 10°C
Procedure: as §3, §4
(§5) Two parts of each of the present compounds in Table 1 (sample numbers A to H) and, as a counterpart, Antiozonant AFD represented by sample number I were individually mixed thoroughly with the following rubber compound,
(§6) and each resulting mixture was well milled on a 2-roll mill of 10 inches in diameter and then vulcanized thereon at 150°C. for 30 minutes. A blank test was also carried out at the same time for comparison, using the rubber compound alone above mentioned.

[4] = Dynamic ozone deterioration test, Example 2 SBR compound; conditions: Table 5, dynamic, repeated elongation 0 up to 20 %, 2 parts added, ozone 35 ± 5 pphm, 50 ± 10°C
Procedure: as §3, §4, §5, §6

[5] = Static ozone deterioration test, Example 3 chloroprene rubber compound; conditions: Table 6, static, 20 % elongation, 1.5 parts added, ozone 90 ± 5 pphm, 50 ± 10°C
Procedure: as §3
(§7) be 50 ± 10°C., and the time required for the generation of visually observable cracks on the surface of the vulcanized rubber was taken as a crack-generating time which was used as the measure of ozone-resistance. […]
(§8) A blank test was also carried out at the same time for comparison, using the rubber compound alone above mentioned.

[6] = Dynamic ozone deterioration test, Example 3 chloroprene rubber compound; conditions: Table 7, dynamic, repeated elongation 0 up to 20 %, 1.5 parts added, ozone 90 ± 5 pphm, 50 ± 10°C
Procedure: as §3, §7, §8

N#CCCSCCC#N [Sample A]
Crack-generating time [1]: 20 h
Crack-generating time [2]: 24 h
Crack-generating time [3]: 16 h
Crack-generating time [4]: 21 h
Crack-generating time [5]: 200 h
Crack-generating time [6]: 220 h

N#CCCCSCCCC#N [D]
Crack-generating time [1]: 19 h
Crack-generating time [2]: 22 h
Crack-generating time [3]: 15 h
Crack-generating time [4]: 19 h
Crack-generating time [5]: 195 h
Crack-generating time [6]: 215 h

CCC(CCCC#N)CSCC(CC)CCCC#N (stereo not drawn) [E]
Crack-generating time [1]: 16 h
Crack-generating time [2]: 16 h
Crack-generating time [3]: 11 h
Crack-generating time [4]: 15 h
Crack-generating time [5]: 180 h
Crack-generating time [6]: 190 h

CC(C)SCCC#N [B]
Crack-generating time [1]: 15 h
Crack-generating time [2]: 16 h
Crack-generating time [3]: 11 h
Crack-generating time [4]: 14 h
Crack-generating time [5]: 175 h
Crack-generating time [6]: 185 h

CCCCCCCCCCCCCCCCCCSCCC#N [F]
Crack-generating time [1]: 14 h
Crack-generating time [2]: 15 h
Crack-generating time [3]: 10 h
Crack-generating time [4]: 13 h
Crack-generating time [5]: 170 h
Crack-generating time [6]: 180 h

CC(C#N)CSCC(C)C#N (stereo not drawn) [C]
Crack-generating time [1]: 18 h
Crack-generating time [2]: 20 h
Crack-generating time [3]: 13 h
Crack-generating time [4]: 18 h
Crack-generating time [5]: 190 h
Crack-generating time [6]: 210 h
